According to ChEMBL document CHEMBL3751821, “The semi-synthesis of novel andrographolide analogues and anti-influenza virus activity evaluation of their derivatives” (Bioorg Med Chem Lett, 2016):
Converted amounts (≈) assume the structure as drawn.

Columns and labels:
[1] = test system: Influenza A virus H3N2; experiment: Antiviral activity against Influenza A virus H3N2 A3/JINGKE/30/95 infected in MDCK cells assessed as inhibition of virus-induced cytopathic effect after 72 hrs; format: functional, organism-based
[2] = (§1) Cytotoxicity against MDCK cells after 72 hrs by MTT assay; format: cell-based, Canis lupus familiaris; details: dog, MDCK cells; read-out: TC50
[3] = test system: MDCK; experiment: as §1; format: cell-based, Canis lupus familiaris; details: dog, mdck, 72 h
[4] = Therapeutic index, ratio of TC50 for MDCK cells to IC50 for Influenza A virus H3N2 A3/JINGKE/30/95; format: cell-based; details: dog, read-out: TI
[5] = Influenza A virus, A3/JINGKE/30/95, MDCK, 72 h, read-out: IC50

With `C[C@@]1(CO)[C@H](O)CC[C@@]2(C)C(CCC3=CCOC3=O)=C(Cn3ccc(=O)[nH]c3=O)CC[C@H]12` the IC50 ([1]; mdck) was “Not Active” and the CC50 at 72 h [2] was greater than 200 mg/L.

With `C[C@@]1(CO)[C@H](O)CC[C@@]2(C)C(CCC3=CCOC3=O)=C(CNC34CC5CC(CC(C5)C3)C4)CC[C@H]12` the IC50 ([1]; mdck) was “Not Active” and the CC50 at 72 h [2] was greater than 200 mg/L.

With `C[C@]1(CO)[C@H]2CC=C(Cn3ccc(=O)[nH]c3=O)[C@@H](CCC3=CCOC3=O)[C@]2(C)CC[C@H]1O` the IC50 [1, 5] was 192 mg/L (≈ 431 µM) and the TC50 [3] was “Non-toxic”.

`C[C@]1(CO)[C@H]2CC=C(Cn3ccnc3)[C@@H](CCC3=CCOC3=O)[C@]2(C)CC[C@H]1O` gave an IC50 [1, 5] of 201 mg/L (≈ 502 µM), a CC50 at 72 h [2] of 212 mg/L (≈ 529 µM) and a selectivity ratio [4] of 1.05.

With `C[C@]1(CO)[C@H]2CC=C(Cn3cnc4ncnc(N)c43)[C@@H](CCC3=CCOC3=O)[C@]2(C)CC[C@H]1O` the IC50 [1, 5] was 192 mg/L (≈ 411 µM), the CC50 at 72 h [2] was 524 mg/L (≈ 1120 µM) and the selectivity ratio [4] was 2.72.

In the case of `C[C@]1(CO)[C@H]2CC=C(Cn3cccn3)[C@@H](CCC3=CCOC3=O)[C@]2(C)CC[C@H]1O`, the IC50 ([1]; mdck) is reported as “Not Active” and the CC50 at 72 h [2] is reported as 122 mg/L (≈ 305 µM).

With `C[C@]1(CO)[C@H]2CC=C(Cn3cncn3)[C@@H](CCC3=CCOC3=O)[C@]2(C)CC[C@H]1O` the IC50 ([1]; mdck) was “Not Active” and the TC50 [3] was “Non-toxic”.

With `C[C@@]1(CO)[C@H](O)CC[C@@]2(C)C(CCC3=CCOC3=O)=C(CN3CCOCC3)CC[C@H]12` the IC50 ([1]; mdck) was “Not Active” and the CC50 at 72 h [2] was greater than 200 mg/L.

With `C[C@]1(CO)[C@H]2CC=C(Cn3ccc(N)nc3=O)[C@@H](CCC3=CCOC3=O)[C@]2(C)CC[C@H]1O` the IC50 [1, 5] was 186 mg/L (≈ 419 µM), the CC50 at 72 h [2] was 491 mg/L (≈ 1110 µM) and the selectivity ratio [4] was 2.64.

In the case of `C[C@]1(CO)[C@H]2CC=C(CN3CCOCC3)[C@@H](CCC3=CCOC3=O)[C@]2(C)CC[C@H]1O`, the IC50 ([1]; mdck) is reported as “Not Active” and the TC50 [3] is reported as “Non-toxic”.

Work on `C[C@]1(CO)[C@H]2CC=C(CNCc3ccccc3)[C@@H](CCC3=CCOC3=O)[C@]2(C)CC[C@H]1O` yielded an IC50 [1, 5] of 122 mg/L (≈ 277 µM), a CC50 at 72 h [2] of 965 mg/L (≈ 2190 µM) and a selectivity ratio [4] of 7.91.

With `Cc1cn(CC2=C(CCC3=CCOC3=O)[C@]3(C)CC[C@@H](O)[C@@](C)(CO)[C@H]3CC2)c(=O)[nH]c1=O` the IC50 ([1]; mdck) was “Not Active” and the CC50 at 72 h [2] was greater than 200 mg/L.

With `C[C@@]1(CO)[C@H](O)CC[C@@]2(C)C(CCC3=CCOC3=O)=C(Cn3cncn3)CC[C@H]12` the IC50 ([1]; mdck) was “Not Active” and the CC50 at 72 h [2] was greater than 200 mg/L.

In the case of `Cc1cn(CC2=CC[C@@H]3[C@](C)(CO)[C@H](O)CC[C@@]3(C)[C@@H]2CCC2=CCOC2=O)c(=O)[nH]c1=O`, the IC50 [1, 5] is reported as 201 mg/L (≈ 438 µM) and the TC50 [3] is reported as “Non-toxic”.

Molecule `C[C@]1(CO)[C@H]2CC=C(CNC34CC5CC(CC(C5)C3)C4)[C@@H](CCC3=CCOC3=O)[C@]2(C)CC[C@H]1O` has an IC50 [1, 5] of 161 mg/L (≈ 332 µM), a CC50 at 72 h [2] of 2380 mg/L (≈ 4910 µM) and a selectivity ratio [4] of 14.8.

For `C[C@@]1(CO)[C@H](O)CC[C@@]2(C)C(CCC3=CCOC3=O)=C(Cn3ccnc3)CC[C@H]12`, the IC50 ([1]; mdck) was “Not Active” and the CC50 at 72 h [2] was greater than 200 mg/L.

For `C[C@@]1(CO)[C@H](O)CC[C@@]2(C)C(CCC3=CCOC3=O)=C(CNCc3ccccc3)CC[C@H]12`, the IC50 ([1]; mdck) was “Not Active” and the CC50 at 72 h [2] was greater than 200 mg/L.

With `C[C@@]1(CO)[C@H](O)CC[C@@]2(C)C(CCC3=CCOC3=O)=C(Cn3ccc(N)nc3=O)CC[C@H]12` the IC50 ([1]; mdck) was “Not Active” and the CC50 at 72 h [2] was greater than 200 mg/L.

`C=C1CC[C@@H]2[C@](C)(CO)[C@H](O)CC[C@@]2(C)[C@@H]1CC(C1=CCOC1=O)S(=O)(=O)[O-].[Na+]` (some centres not stated) showed an IC50 [1, 5] of 176 mg/L, a CC50 at 72 h [2] of 2280 mg/L and a selectivity ratio [4] of 12.9.

For `C[C@@]12CC[C@@H](O)[C@@](C)(CO)C1CCC(CO)=C2CCC1=CCOC1=O` (single isomer, unassigned), the IC50 ([1]; mdck) was “Not Active” and the CC50 at 72 h [2] was 124 mg/L (≈ 355 µM).

In the case of `C[C@]1(CO)C2CC=C(CO)[C@@H](CCC3=CCOC3=O)[C@]2(C)CC[C@H]1O` (single isomer, unassigned), the IC50 [1, 5] is reported as 197 mg/L (≈ 562 µM), the CC50 at 72 h [2] is reported as 678 mg/L (≈ 1940 µM) and the selectivity ratio [4] is reported as 3.44.

For `NC(=O)c1ncn([C@@H]2O[C@H](CO)[C@@H](O)[C@H]2O)n1` [RIBAVIRIN], the IC50 [1, 5] was 87.7 mg/L (≈ 359 µM), the CC50 at 72 h [2] was 3280 mg/L (≈ 13400 µM) and the selectivity ratio [4] was 37.4.
